Test results reported in patent publication US20260285850A1, “SUBSTITUTED OXAZOLIDINONES AND IMIDAZOLINONES AS HERBICIDES” (FMC CORPORATION, priority 2023, published 2026).

Experiments:
Type in all cases: in vivo
[1] = system: ducksalad (Heteranthera limosa); assay: Test B flooded paddy test, visual plant response rating 0-100; conditions: 250 g ai/ha, Flood, applied to paddy water, evaluated after 13 days
Procedure, shortened: (§1)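 Greenhouse, 13 d. Seedlings at 2-leaf stage, pots flooded to 3 cm, compound delivered into floodwater, water level held constant. Evaluated visually relative to controls.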

rice (Oryza sativa) = assay: as above; conditions: 250 g ai/ha, Flood, applied to paddy water, evaluated after 13 days
Procedure, shortened: as §1

[2] = system: sedge, umbrella (small-flower umbrella sedge, Cyperus difformis); assay: as above; conditions: 250 g ai/ha, Flood, applied to paddy water, evaluated after 13 days
Procedure, shortened: as §1

[3] = system: barnyardgrass (Echinochloa crusgalli); assay: as above; conditions: 250 g ai/ha, Flood, applied to paddy water, evaluated after 13 days
Procedure, shortened: as §1

soybean (Glycine max) [4] = assay: Test A postemergence application, visual injury rating 0-100
Procedure, shortened: (§2)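 Plants were grown in a loam soil-sand blend and treated with test chemical in a non-phytotoxic solvent mixture containing surfactant, either sprayed on soil preemergence or applied postemergence to 2-10 cm plants. After 10 days in a greenhouse, injury was scored visually against untreated controls, 0 meaning no effect and 100 complete control.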

[5] = system: horseweed (Erigeron canadensis); assay: as above
Procedure, shortened: as §2

corn (Zea mays) [6] = assay: as above
Procedure, shortened: as §2

[7] = system: galium (catchweed bedstraw, Galium aparine); assay: as above
Procedure, shortened: as §2

[8] = system: ryegrass, Italian (italian ryegrass, Lolium multiflorum); assay: as above
Procedure, shortened: as §2

[9] = system: oat, wild (wild oat, Avena fatua); assay: as above
Procedure, shortened: as §2

[10] = system: ragweed (common ragweed, Ambrosia artemisiifolia); assay: as above
Procedure, shortened: as §2

[11] = system: palmer (palmer amaranth, palmer pigweed, Amaranthus palmeri); assay: as above
Procedure, shortened: as §2

[12] = system: green foxtail (Setaria viridis); assay: as above
Procedure, shortened: as §2

kochia (Bassia scoparia) [13] = assay: as above
Procedure, shortened: as §2

[14] = system: wheat (Triticum aestivum); assay: as above
Procedure, shortened: as §2

[15] = system: barnyardgrass (Echinochloa crus-galli); assay: as above
Procedure, shortened: as §2

[16] = system: blackgrass (Alopecurus myosuroides); assay: as above
Procedure, shortened: as §2

soybean (Glycine max) [17] = assay: Test A preemergence soil spray, visual injury rating 0-100; conditions: 10 days
Procedure, shortened: as §2

corn (Zea mays) [18] = assay: as above; conditions: 10 days
Procedure, shortened: as §2

[19] = system: ryegrass, Italian (italian ryegrass, Lolium multiflorum); assay: as above; conditions: 10 days
Procedure, shortened: as §2

[20] = system: oat, wild (wild oat, Avena fatua); assay: as above; conditions: 10 days
Procedure, shortened: as §2

[21] = system: ragweed (common ragweed, Ambrosia artemisiifolia); assay: as above; conditions: 10 days
Procedure, shortened: as §2

[22] = system: palmer (palmer amaranth, palmer pigweed, Amaranthus palmeri); assay: as above; conditions: 10 days
Procedure, shortened: as §2

[23] = system: green foxtail (Setaria viridis); assay: as above; conditions: 10 days
Procedure, shortened: as §2

kochia (Bassia scoparia) [24] = assay: as above; conditions: 16 g ai/ha, 0 to 100 scale, 10 days
Procedure, shortened: as §2

[25] = system: wheat (Triticum aestivum); assay: as above; conditions: 10 days
Procedure, shortened: as §2

[26] = system: barnyardgrass (Echinochloa crus-galli); assay: as above; conditions: 10 days
Procedure, shortened: as §2

[27] = system: blackgrass (Alopecurus myosuroides); assay: as above; conditions: 10 days
Procedure, shortened: as §2

[28] = 62 g ai/ha, postemergence, 10 days, 0 = no effect, 100 = complete control
[29] = Postemergence, 16 g ai/ha, greenhouse 10 days, 0 no effect, 100 complete control
[30] = 62 g ai/ha, 0 = no effect, 100 = complete control

CCOC(=O)C1C=CC(NC(=O)C2(C)CN(c3cccc(OC(F)(F)F)c3)C(=O)O2)C1 (stereo not drawn) [Compound 102]
70: Galium plant response rating (0-100) [7, 28] | Ryegrass, Italian plant response rating (0-100) [8, 28] | Kochia plant response rating (0-100) (kochia (Bassia scoparia) [13]; [28]) | Ryegrass, Italian plant response rating (0-100) [19, 30]
60: Corn plant response rating (0-100) (corn (Zea mays) [6]; [28]) | Oat, Wild plant response rating (0-100) [9, 28]
20: Horseweed plant response rating (0 to 100 scale) [5, 29] | Ryegrass, Italian plant response rating (0 to 100 scale) [8, 29] | Oat, Wild plant response rating (0 to 100 scale) [9, 29] | Ragweed plant response rating (0-100) [10, 28] | Foxtail, Green plant response rating (0-100) [12, 28] | Wheat plant response rating (0-100) [14, 28] | Wheat plant response rating (0 to 100 scale) [14, 29] | Wheat plant response rating (0-100) [25, 30]
0: Plant response rating, Ducksalad (0 to 100 scale, 0 is no effect and 100 is complete control) [1] | Plant response rating, Rice (0 to 100 scale, 0 is no effect and 100 is complete control) (rice (Oryza sativa)) | Plant response rating, Sedge, Umbrella (0 to 100 scale, 0 is no effect and 100 is complete control) [2] | Plant response rating, Barnyardgrass (0 to 100 scale, 0 is no effect and 100 is complete control) [3] | Corn plant response rating (0 to 100 scale) (corn (Zea mays) [6]; [29]) | Ragweed plant response rating (0 to 100 scale) [10, 29] | Pigweed, Palmer plant response rating (0 to 100 scale) [11, 29] | Kochia plant response rating (0 to 100 scale) (kochia (Bassia scoparia) [13]; [29]) | Soybean plant response rating (soybean (Glycine max) [17]; 16 g ai/ha, 0 to 100 scale) | Soybean plant response rating (0-100) (soybean (Glycine max) [17]; [30]) | Corn plant response rating (corn (Zea mays) [18]; 16 g ai/ha, 0 to 100 scale) | Ryegrass, Italian plant response rating ([19]; 16 g ai/ha, 0 to 100 scale) | Oat, Wild plant response rating ([20]; 16 g ai/ha, 0 to 100 scale) | Ragweed plant response rating ([21]; 16 g ai/ha, 0 to 100 scale) | Ragweed plant response rating (0-100) [21, 30] | Pigweed, Palmer plant response rating ([22]; 16 g ai/ha, 0 to 100 scale) | Pigweed, Palmer plant response rating (0-100) [22, 30] | Foxtail, Green plant response rating ([23]; 16 g ai/ha, 0 to 100 scale) | Kochia plant response rating (kochia (Bassia scoparia) [24]) | Wheat plant response rating ([25]; 16 g ai/ha, 0 to 100 scale) | Barnyardgrass plant response rating ([26]; 16 g ai/ha, 0 to 100 scale) | Barnyardgrass plant response rating (0-100) [26, 30] | Blackgrass plant response rating ([27]; 16 g ai/ha, 0 to 100 scale)
50: Soybean plant response rating (0-100) (soybean (Glycine max) [4]; [28]) | Galium plant response rating (0 to 100 scale) [7, 29] | Blackgrass plant response rating (0 to 100 scale) [16, 29]
90: Blackgrass plant response rating (0-100) [16, 28]
80: Barnyardgrass plant response rating (0-100) [15, 28]
10: Horseweed plant response rating (0-100) [5, 28] | Pigweed, Palmer plant response rating (0-100) [11, 28] | Foxtail, Green plant response rating (0 to 100 scale) [12, 29] | Corn plant response rating (0-100) (corn (Zea mays) [18]; [30]) | Foxtail, Green plant response rating (0-100) [23, 30]
30: Soybean plant response rating (0 to 100 scale) (soybean (Glycine max) [4]; [29]) | Barnyardgrass plant response rating (0 to 100 scale) [15, 29] | Oat, Wild plant response rating (0-100) [20, 30] | Blackgrass plant response rating (0-100) [27, 30]
